# Laboratory results published in ChEMBL document CHEMBL4616701, “Design, Synthesis, and Pharmacological Evaluation of Second Generation EZH2 Inhibitors with Long Residence Time” (ACS Med Chem Lett, 2020).
# pEC50, pIC50: −log10 of the molar value. Active and inactive are the calls of the source. The rule behind the calls is not given here.
# How the values were obtained:
# [1] = target: T1, Histone-lysine N-methyltransferase EZH2 (Homo sapiens, UniProt Q15910); test: Inhibition of EZH2 in human HeLa cells assessed as inhibition of trimethylation of H3K27 after 72 hrs by AlphaLISA assay; assay type: cell-based
# Target sequence in this assay (Q15910 whole entry): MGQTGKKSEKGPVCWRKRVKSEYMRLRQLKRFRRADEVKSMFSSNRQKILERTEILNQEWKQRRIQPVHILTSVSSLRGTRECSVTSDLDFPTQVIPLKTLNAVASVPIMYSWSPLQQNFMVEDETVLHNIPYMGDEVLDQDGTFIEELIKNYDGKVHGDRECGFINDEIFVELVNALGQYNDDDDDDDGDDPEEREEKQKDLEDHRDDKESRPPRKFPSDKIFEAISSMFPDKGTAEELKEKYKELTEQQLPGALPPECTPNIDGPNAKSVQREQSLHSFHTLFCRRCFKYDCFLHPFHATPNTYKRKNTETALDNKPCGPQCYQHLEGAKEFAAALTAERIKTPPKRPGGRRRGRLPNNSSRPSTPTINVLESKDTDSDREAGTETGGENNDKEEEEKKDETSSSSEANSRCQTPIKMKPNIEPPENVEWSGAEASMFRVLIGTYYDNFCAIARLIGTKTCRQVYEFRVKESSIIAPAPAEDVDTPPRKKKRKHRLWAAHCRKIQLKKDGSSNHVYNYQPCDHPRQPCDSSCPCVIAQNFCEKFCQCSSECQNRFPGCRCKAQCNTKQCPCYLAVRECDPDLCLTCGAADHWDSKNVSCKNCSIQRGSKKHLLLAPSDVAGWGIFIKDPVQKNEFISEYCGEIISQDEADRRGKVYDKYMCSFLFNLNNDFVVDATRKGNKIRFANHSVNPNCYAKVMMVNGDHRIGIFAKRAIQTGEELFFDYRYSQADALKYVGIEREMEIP
# [2] = target: T1, Histone-lysine N-methyltransferase EZH2; test: Inhibition of N-terminal FLAG-tagged EZH2 in PRC2 complex (unknown origin) expressed in baculovirus infected Sf9 cells using H2N-RKQLATKAAR(Kme0)SAPATGGVKKP-NTPEGBiot peptide as substrate preincubated with [3H]SAM for 4 to 5 hrs followed by substrate addition and measured after 20 hrs by Topcount reader analysis
# Target sequence in this assay (Q15910 whole entry): as above
# [3] = target: T1, Histone-lysine N-methyltransferase EZH2; test: Binding affinity to N-terminal FLAG-tagged EZH2 in PRC2 complex (unknown origin) expressed in baculovirus infected Sf9 cells assessed as residence time at 21 nM pre-equilibrated with enzyme followed by incubation with bio-EZH2i and measured after 3 to 6 mins by TR-FRET assay
# Target sequence in this assay (Q15910 whole entry, looked up): as the sequence (Q15910 whole entry) above
# [4] = tested on: KARPAS-422; test: Antiproliferative activity against human KARPAS422 cells assessed as growth inhibition after 8 days by Cell Titer-Glo luminescent assay; assay type: functional; conditions: KARPAS-422, 192 h
# [5] = tested on: CYP3A4; test: Upregulation of CYP3A4 mRNA expression in human Fa2N-4 cells at 10 uM after 3 days relative to control; assay type: ADME, cell-based; conditions: read-out: FC
# [6] = tested on: KARPAS-422; test: Antitumor activity against human KARPAS422 cells xenografted in CB-17 SCID mouse assessed as tumor growth inhibition at 50 mg/kg, sc bid for 16 days and measured three times per week by caliper method relative to control; assay type: functional; conditions: KARPAS-422, sc, 384 h, read-out: TGI
# [7] = tested on: KARPAS-422; test: Antitumor activity against human KARPAS422 cells xenografted in CB-17 SCID mouse assessed as tumor regression at 50 mg/kg, sc bid for 16 days and measured at day 7 by caliper method; assay type: functional, organism-based
# [8] = Protein binding in human plasma; assay type: ADME, cell-free; conditions: read-out: PPB (converted)
# [9] = Clearance in iv dosed mouse; assay type: ADME, organism-based; conditions: in vivo
# [10] = Oral bioavailability in mouse; assay type: ADME, organism-based; conditions: in vivo
# [11] = Toxicity in CB-17 SCID mouse xenografted with human KARPAS422 cells assessed as body weight loss at 50 mg/kg, sc bid for 16 days; assay type: organism-based, KARPAS-422; conditions: in vivo, 384 h
# [12] = Protein binding in mouse plasma; assay type: ADME, cell-free; conditions: read-out: PPB (converted)
# [13] = tested on: KARPAS-422; test: Antitumor activity against human KARPAS422 cells xenografted in CB-17 SCID mouse assessed as tumor regression at 50 mg/kg, sc bid for 16 days and measured at day 9 by caliper method; assay type: functional, organism-based
# [14] = tested on: CWR22R; test: Antitumor activity against human 22Rv1 cells xenografted in CB-17 SCID mouse assessed as tumor growth inhibition at 50 mg/kg, sc bid and measured three times per week by caliper method relative to control; assay type: functional; conditions: 22Rv1, sc, read-out: TGI
# [15] = tested on: KARPAS-422; test: Antitumor activity against human KARPAS422 cells xenografted in CB-17 SCID mouse assessed as tumor regression at 160 mg/kg, po bid for 23 days and measured three times per week by caliper method; assay type: functional, organism-based
# [16] = Dose normalized AUClast in CB-17 SCID mouse xenografted with human KARPAS422 cells at 25 mg/kg, po bid for 21 days and measured after 10 hrs post first dose at day 1 by LC-MS analysis; assay type: ADME, organism-based, KARPAS-422; conditions: in vivo
# [17] = Oral bioavailability in CB-17 SCID mouse xenografted with human KARPAS422 cells at 25 mg/kg, bid for 21 days measured up to 10 hrs post first dose at day 1 by LC-MS analysis; assay type: ADME, organism-based, KARPAS-422; conditions: in vivo
# [18] = tested on: KARPAS-422; test: Antitumor activity against human KARPAS422 cells xenografted in CB-17 SCID mouse assessed as tumor growth inhibition at 25 mg/kg, po bid and measured on day 25 by caliper method relative to control; assay type: functional; conditions: KARPAS-422, po, 600 h, read-out: TGI
# [19] = tested on: KARPAS-422; test: Antitumor activity against human KARPAS422 cells xenografted in CB-17 SCID mouse assessed as tumor regression at 25 mg/kg, po bid and measured on day 14 by caliper method; assay type: functional, organism-based
# [20] = target: T1, Histone-lysine N-methyltransferase EZH2; test: In vivo inhibition of EZH2 in CB-17 SCID mouse xenografted with human KARPAS422 cells assessed as reduction in trimethylation of H3K27 in tumor at 25 mg/kg, po bid for 21 days measured after 14 days by MSD-ELISA; assay type: functional, organism-based; conditions: KARPAS-422
# Target sequence in this assay (Q15910 whole entry, looked up): as the sequence (Q15910 whole entry) above
# [21] = tested on: KARPAS-422; test: Antitumor activity against human KARPAS422 cells xenografted in CB-17 SCID mouse assessed as tumor growth inhibition at 25 mg/kg, po bid and measured on day 21 by caliper method relative to control; assay type: functional; conditions: KARPAS-422, po, 504 h, read-out: TGI
# [22] = Time during which free drug concentration exceeds EC50 for inhibition of EZH2 in human HeLa cells in CB-17 SCID mouse xenografted with human KARPAS422 cells at 25 mg/kg, po bid for 21 days and measured up to 10 hrs post first dose at day 1 by LC-MS analysis; assay type: organism-based; conditions: in vivo
# [23] = Toxicity in CB-17 SCID mouse xenografted with human KARPAS422 cells assessed as effect on body weight at 25 mg/kg, po bid and measured on day 21; assay type: organism-based, KARPAS-422; conditions: in vivo
Structure (SMILES),pEC50 [1],pIC50 [2],TIME [3],GI50 [4],"fold induction at 72 h, 10 µM [5]",other results
CSc1cc(C)[nH]c(=O)c1CNC(=O)c1c(C)n([C@H](C)[C@H]2CC[C@H](N3CC(OC4CC4)C3)CC2)c2c(F)cccc12,8.47,10.20,100 h,32 nM,–,–
CSc1cc(C)[nH]c(=O)c1CNC(=O)c1c(C)n([C@H](C)C2CCN(CC(C)(C)O)CC2)c2ccccc12,7.59,10.17,7.52 h,–,–,–
CSc1cc(C)[nH]c(=O)c1CNC(=O)c1c(C)n([C@H](C)[C@H]2OC[C@H](N(C)C)CO2)c2ccccc12,8.62,9.80,40.9 h,–,3,–
CCSc1cc(C)[nH]c(=O)c1CNC(=O)c1c(C)n([C@H](C)C2CCN(CC(F)(F)F)CC2)c2ccccc12,7.34,9.14,–,–,–,–
CSc1cc(C)[nH]c(=O)c1CNC(=O)c1c(C)n([C@H](C)[C@H]2CC[C@H](N3CC(OC4CC4)C3)CC2)c2ncc(Cl)cc12,8.46,10.04,64.2 h,37 nM,1.6,–
Cc1cc(Cl)[nH]c(=O)c1CNC(=O)c1c(C)n([C@H](C)C2CCN(CC(F)(F)F)CC2)c2ccccc12,< 6.00,7.52 to 9.70,–,–,–,–
CSc1cc(C)[nH]c(=O)c1CNC(=O)c1c(C)n([C@H](C)[C@H]2CC[C@H](N3CC(OC4CC4)C3)CC2)c2ncncc12,8.20,10.00,51.9 h,29 nM,–,–
Cc1cc([S+](C)[O-])c(CNC(=O)c2c(C)n([C@H](C)C3CCN(CC(F)(F)F)CC3)c3ccccc23)c(=O)[nH]1 (stereo partly drawn),< 6.52,7.72,–,–,–,–
Cc1cc(Sc2ccccc2)c(CNC(=O)c2c(C)n([C@H](C)C3CCN(CC(F)(F)F)CC3)c3ccccc23)c(=O)[nH]1,6.74,9.21,–,–,–,–
Cc1cc(Cl)c(CNC(=O)c2c(C)n([C@H](C)C3CCN(CC(F)(F)F)CC3)c3ccccc23)c(=O)[nH]1,> 7.00,7.52 to 9.70,–,–,–,–
CSc1cc(C)[nH]c(=O)c1CNC(=O)c1c(C)n([C@H](C)[C@H]2CC[C@@H](N3CC(F)(F)C3)CC2)c2ccccc12,8.23,9.74,29.1 h,–,45,–
CSc1cc(C)[nH]c(=O)c1CNC(=O)c1c(C)n([C@H](C)[C@H]2CC[C@H](NC3COC3)CC2)c2ccccc12,8.17,9.89,138 h,–,5,–
CSc1cc(C)[nH]c(=O)c1CNC(=O)c1c(C)n([C@H](C)[C@H]2CC[C@H](N3CC(OC(F)F)C3)CC2)c2ccccc12,9.15,10.00,211 h,12 nM,32,–
COc1cc(C)c(CNC(=O)c2c(C)n([C@H](C)C3CCN(CC(F)(F)F)CC3)c3ccccc23)c(=O)[nH]1,< 6.00,7.52 to 9.70,–,–,–,–
Cc1cc(S(C)(=O)=O)c(CNC(=O)c2c(C)n([C@H](C)C3CCN(CC(F)(F)F)CC3)c3ccccc23)c(=O)[nH]1,< 6.52,8.39,–,–,–,–
COc1cc(C)[nH]c(=O)c1CNC(=O)c1c(C)n([C@H](C)C2CCN(CC(F)(F)F)CC2)c2ccccc12 [CPI-1205],–,–,4.5 h,436 nM,–,–
CSc1cc(C)[nH]c(=O)c1CNC(=O)c1c(C)n([C@H](C)C2CCN(CC(F)(F)F)CC2)c2ccccc12,8.60,9.74,46.3 h,53 nM,25,inhibition in vivo at 50 mg/kg [6]: 77 to 88%; Activity [7]: Active; fraction unbound [8]: 0.03; clearance [9]: 9.33 mL/min/kg; bioavailability [10]: 40%; Activity [11]: Non-Toxic; fraction unbound [12]: 0.002
CSc1cc(C)[nH]c(=O)c1CNC(=O)c1c(C)n([C@H](C)[C@H]2CC[C@H](N3CC(OC4CC4)C3)CC2)c2ccccc12,8.46,10.14,289 h,13 nM,17,–
COC1CN([C@H]2CC[C@H]([C@@H](C)n3c(C)c(C(=O)NCc4c(SC)cc(C)[nH]c4=O)c4ccccc43)CC2)C1,8.70,10.23,141 h,33 nM,2,Activity [11]: Non-Toxic; Activity [13]: Active; inhibition in vivo at 50 mg/kg [14]: 55%
Cc1cc(SCc2ccccc2)c(CNC(=O)c2c(C)n([C@H](C)C3CCN(CC(F)(F)F)CC3)c3ccccc23)c(=O)[nH]1,–,8.42,–,–,–,–
Cc1cc(SC2CCC2)c(CNC(=O)c2c(C)n([C@H](C)C3CCN(CC(F)(F)F)CC3)c3ccccc23)c(=O)[nH]1,7.31,9.31,–,–,–,–
CCN(c1cc(-c2ccc(CN3CCOCC3)cc2)cc(C(=O)NCc2c(C)cc(C)[nH]c2=O)c1C)C1CCOCC1,–,–,–,–,–,Activity [15]: Active
Cc1cc(C)c(CNC(=O)c2c(C)n([C@H](C)C3CCN(CC(F)(F)F)CC3)c3ccccc23)c(=O)[nH]1,–,7.52 to 9.70,–,–,–,–
CSc1cc(C)[nH]c(=O)c1CNC(=O)c1c(C)n([C@H](C)C2CCN(C3COC3)CC2)c2ccccc12,8.29,9.92,42.5 h,–,6.4,–
CSc1cc(C)[nH]c(=O)c1CNC(=O)c1c(C)n([C@H](C)[C@H]2CC[C@H](N3CC(OC(F)(F)F)C3)CC2)c2ccccc12,8.74,9.85,–,32 nM,41,–
CSc1cc(C)[nH]c(=O)c1CNC(=O)c1c(C)n([C@H](C)[C@H]2CC[C@H](N3CC(OC4CC4)C3)CC2)c2ncc(F)cc12,8.74,10.22,65.8 h,24 nM,12,–
CSc1cc(C)[nH]c(=O)c1CNC(=O)c1c(C)n([C@H](C)[C@H]2CC[C@H](N3CC(OC4CC4)C3)CC2)c2ncccc12,8.74,10.24,57.5 h,12 to 12.2 nM,2.2,AUClast/dose [16]: 46.5 ng·h/mL/(mg/kg); fraction unbound [8]: 0.03; bioavailability [17]: 15%; inhibition in vivo at 25 mg/kg [18]: ≥ 91%; Activity [19]: Active; inhibition [20]: Active; clearance [9]: 55.8 mL/min/kg; inhibition in vivo at 25 mg/kg [21]: 75%; T>fEC50 [22]: 4 h; fraction unbound [12]: 0.13; Activity [23]: Non-Toxic
